For this experiment, the target named is T1, PLCγ2 (Homo sapiens, UniProt P16885).
T1 sequence (P16885 1-1195): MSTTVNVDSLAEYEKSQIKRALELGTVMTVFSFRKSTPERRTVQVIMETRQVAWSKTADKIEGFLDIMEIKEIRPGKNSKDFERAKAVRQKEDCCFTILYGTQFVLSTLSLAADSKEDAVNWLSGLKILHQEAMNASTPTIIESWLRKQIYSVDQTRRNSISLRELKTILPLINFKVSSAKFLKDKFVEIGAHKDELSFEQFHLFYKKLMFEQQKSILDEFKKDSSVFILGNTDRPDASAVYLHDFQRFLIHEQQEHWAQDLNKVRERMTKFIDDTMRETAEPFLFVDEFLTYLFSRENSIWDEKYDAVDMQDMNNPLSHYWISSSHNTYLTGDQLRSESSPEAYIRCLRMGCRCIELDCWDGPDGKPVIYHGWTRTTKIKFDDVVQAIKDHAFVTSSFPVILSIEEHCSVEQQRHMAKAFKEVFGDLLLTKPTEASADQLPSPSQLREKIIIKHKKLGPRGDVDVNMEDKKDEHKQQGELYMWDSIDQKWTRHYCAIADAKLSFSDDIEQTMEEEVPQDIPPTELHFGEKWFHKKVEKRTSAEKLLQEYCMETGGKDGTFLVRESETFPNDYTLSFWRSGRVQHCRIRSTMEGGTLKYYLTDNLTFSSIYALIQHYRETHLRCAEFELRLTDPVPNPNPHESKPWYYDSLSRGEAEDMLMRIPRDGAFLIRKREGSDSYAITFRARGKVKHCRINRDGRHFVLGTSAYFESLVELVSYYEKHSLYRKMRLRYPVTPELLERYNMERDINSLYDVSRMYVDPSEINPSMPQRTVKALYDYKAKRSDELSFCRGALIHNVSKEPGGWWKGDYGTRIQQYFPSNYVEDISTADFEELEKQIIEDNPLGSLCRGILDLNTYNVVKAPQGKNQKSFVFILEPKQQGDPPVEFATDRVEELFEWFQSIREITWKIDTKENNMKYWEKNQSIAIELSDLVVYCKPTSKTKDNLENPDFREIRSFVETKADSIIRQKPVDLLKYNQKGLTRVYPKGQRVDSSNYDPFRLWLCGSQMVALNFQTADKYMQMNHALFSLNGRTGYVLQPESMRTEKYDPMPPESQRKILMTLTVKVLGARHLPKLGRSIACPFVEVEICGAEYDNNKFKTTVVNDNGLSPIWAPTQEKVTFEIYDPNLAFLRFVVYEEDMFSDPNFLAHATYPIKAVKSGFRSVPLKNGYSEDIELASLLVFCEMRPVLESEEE
In words: inhibition of C8CF3-coumarin processing by purified enzyme. The format is biochemical.

The term pIC50 denotes −log10 of the IC50, conventionally taken in molar units. A lower pIC50 goes with a high IC50.

pIC50: −log10 of the molar value.

In the case of `Nc1ncnc2c1ncn2[C@@H]1O[C@H](COP(=O)(O)OP(=O)(O)OP(=O)(O)O)[C@@H](O)[C@H]1O` [adenosine triphosphate], the pIC50 was 4.57.

The values are drawn from publication PMC10251139 (SLAS discovery : advancing life sciences R & D, 2023).
